Active and inactive are the calls of the source. The rule behind the calls is not given here.
Columns and labels:
[1] = biological target: T1, Eukaryotic elongation factor 2 kinase (Homo sapiens) (UniProt O00418); assay: Inhibition of GST-tagged EEF2K (unknown origin) at 20 uM using biotinylated EEF2 peptide substrate by HTRF assay relative to control
T1 sequence (whole entry): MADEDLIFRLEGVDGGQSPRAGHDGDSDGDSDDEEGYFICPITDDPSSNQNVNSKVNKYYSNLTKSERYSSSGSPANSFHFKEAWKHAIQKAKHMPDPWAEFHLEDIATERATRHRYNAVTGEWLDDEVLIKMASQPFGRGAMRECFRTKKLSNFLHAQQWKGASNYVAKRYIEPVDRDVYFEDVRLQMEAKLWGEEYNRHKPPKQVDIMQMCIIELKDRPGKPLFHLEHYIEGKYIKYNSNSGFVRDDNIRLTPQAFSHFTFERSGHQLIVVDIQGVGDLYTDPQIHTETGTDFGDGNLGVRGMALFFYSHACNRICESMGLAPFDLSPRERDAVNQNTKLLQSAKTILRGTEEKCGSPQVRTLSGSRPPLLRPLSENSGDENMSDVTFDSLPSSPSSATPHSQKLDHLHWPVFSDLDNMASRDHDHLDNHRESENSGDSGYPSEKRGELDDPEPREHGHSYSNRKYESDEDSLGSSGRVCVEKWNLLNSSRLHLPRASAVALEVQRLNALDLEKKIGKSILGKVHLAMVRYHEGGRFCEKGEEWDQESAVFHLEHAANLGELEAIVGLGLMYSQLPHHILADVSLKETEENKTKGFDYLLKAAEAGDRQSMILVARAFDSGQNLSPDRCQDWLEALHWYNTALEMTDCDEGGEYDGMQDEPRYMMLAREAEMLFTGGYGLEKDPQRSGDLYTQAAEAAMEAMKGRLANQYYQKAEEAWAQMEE

[2] = test system: MCF7; assay: Cytotoxicity against human MCF7 cells after 24 hrs by MTT assay; assay type: functional, cell-based; conditions: MCF7, 24 h
[3] = test system: BT-483; assay: Induction of apoptosis in human BT-483 cells assessed as necrotic cells at 5 uM by Annexin V-FITC/propidium iodide staining based flow cytometry (reference value: 0.18%); assay type: functional
[4] = test system: BT-483; assay: Induction of autophagy in human BT-483 cells transfected with GFP-fused LC3 assessed as aggregation of GFP-LC3 punctures after 6 hrs by DAPI staining based assay; assay type: functional, cell-based
[5] = test system: BT-483; assay: Upregulation of cleaved caspase-3 protein expression in human BT-483 cells at 5 to 10 uM by Western blot analysis; assay type: functional, cell-based
[6] = test system: BT-483; assay: Effect on Fas protein expression in human BT-483 cells at 5 to 10 uM by Western blot analysis; assay type: functional, cell-based
[7] = biological target: Cyclin-dependent kinase 19 (Homo sapiens) (UniProt Q9BWU1); assay: Inhibition of wild-type human partial length CDK11 (M1 to N360 residues) expressed in bacterial expression system assessed as residual activity at 1 uM by Kinomescan method relative to control
Cyclin-dependent kinase 19 (Homo sapiens), sequence (Q9BWU1 whole entry, the tested form may be a part): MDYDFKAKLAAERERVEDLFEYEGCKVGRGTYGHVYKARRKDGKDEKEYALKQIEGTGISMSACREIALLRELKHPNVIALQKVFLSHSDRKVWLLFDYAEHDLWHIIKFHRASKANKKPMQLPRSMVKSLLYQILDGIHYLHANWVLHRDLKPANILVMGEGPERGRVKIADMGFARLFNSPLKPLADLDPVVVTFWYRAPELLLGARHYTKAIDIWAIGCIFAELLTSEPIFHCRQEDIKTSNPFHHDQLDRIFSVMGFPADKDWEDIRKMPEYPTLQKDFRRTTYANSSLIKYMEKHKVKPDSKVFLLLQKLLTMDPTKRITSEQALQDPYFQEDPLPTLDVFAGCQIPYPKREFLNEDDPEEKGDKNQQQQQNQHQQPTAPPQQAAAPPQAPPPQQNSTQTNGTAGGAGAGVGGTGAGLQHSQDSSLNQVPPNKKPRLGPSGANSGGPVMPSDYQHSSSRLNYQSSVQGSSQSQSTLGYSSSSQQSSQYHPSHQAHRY

[8] = biological target: Cyclin-dependent kinase 7 (Homo sapiens) (UniProt P50613); assay: Inhibition of wild-type human full length CDK7 (M1 to L344 residues) expressed in mammalian expression system assessed as residual activity at 1 uM by Kinomescan method relative to control
Cyclin-dependent kinase 7 (Homo sapiens), sequence (P50613 whole entry, the tested form may be a part): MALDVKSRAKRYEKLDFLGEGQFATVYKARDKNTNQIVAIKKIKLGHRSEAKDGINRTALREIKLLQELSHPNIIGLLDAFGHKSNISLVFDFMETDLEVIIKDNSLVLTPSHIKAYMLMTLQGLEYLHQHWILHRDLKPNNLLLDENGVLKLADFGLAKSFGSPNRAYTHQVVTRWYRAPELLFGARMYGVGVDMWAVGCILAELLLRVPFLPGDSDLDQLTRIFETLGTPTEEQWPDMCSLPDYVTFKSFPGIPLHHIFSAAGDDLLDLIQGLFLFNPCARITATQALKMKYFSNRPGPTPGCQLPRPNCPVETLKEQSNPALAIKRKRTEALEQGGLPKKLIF

[9] = biological target: T1, Eukaryotic elongation factor 2 kinase (Homo sapiens); assay: Inhibition of EEF2K (unknown origin) assessed as residual activity at 1 uM by Kinomescan assay relative to control
[10] = test system: Epidermal growth factor receptor (Homo sapiens), P00533 [L858R]; assay: Inhibition of human partial length EGFR L858R mutant (R669 to V1011 residues) expressed in bacterial expression system assessed as residual activity at 1 uM by Kinomescan method relative to control
[11] = biological target: Mitogen-activated protein kinase 3 (Homo sapiens) (UniProt P27361); assay: Inhibition of wild-type human full length ERK1 (M1 to P379 residues) expressed in bacterial expression system assessed as residual activity at 1 uM by Kinomescan method relative to control
Mitogen-activated protein kinase 3 (Homo sapiens), sequence (P27361 whole entry, the tested form may be a part): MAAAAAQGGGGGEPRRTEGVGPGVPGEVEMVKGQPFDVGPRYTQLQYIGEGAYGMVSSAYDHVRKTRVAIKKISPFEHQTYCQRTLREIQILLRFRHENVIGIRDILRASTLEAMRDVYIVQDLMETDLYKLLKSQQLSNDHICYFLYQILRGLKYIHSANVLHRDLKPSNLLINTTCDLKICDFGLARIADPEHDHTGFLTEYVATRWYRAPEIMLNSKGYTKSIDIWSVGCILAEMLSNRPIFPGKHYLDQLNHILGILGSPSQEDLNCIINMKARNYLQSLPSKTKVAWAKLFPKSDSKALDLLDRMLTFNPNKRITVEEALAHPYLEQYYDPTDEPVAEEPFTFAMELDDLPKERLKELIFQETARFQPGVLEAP

[12] = biological target: Mitogen-activated protein kinase 1 (Homo sapiens) (UniProt P28482); assay: Inhibition of wild-type human full length ERK2 (M1 to S360 residues) expressed in bacterial expression system assessed as residual activity at 1 uM by Kinomescan method relative to control
[13] = biological target: Mitogen-activated protein kinase 6 (Homo sapiens) (UniProt Q16659); assay: Inhibition of wild-type human partial length ERK3 (M1 to P413 residues) expressed in bacterial expression system assessed as residual activity at 1 uM by Kinomescan method relative to control
[14] = biological target: Focal adhesion kinase 1 (Homo sapiens) (UniProt Q05397); assay: Inhibition of wild-type human partial length FAK (D402 to R696 residues) expressed in bacterial expression system assessed as residual activity at 1 uM by Kinomescan method relative to control
Focal adhesion kinase 1 (Homo sapiens), sequence (Q05397 2-1052 limits assumed): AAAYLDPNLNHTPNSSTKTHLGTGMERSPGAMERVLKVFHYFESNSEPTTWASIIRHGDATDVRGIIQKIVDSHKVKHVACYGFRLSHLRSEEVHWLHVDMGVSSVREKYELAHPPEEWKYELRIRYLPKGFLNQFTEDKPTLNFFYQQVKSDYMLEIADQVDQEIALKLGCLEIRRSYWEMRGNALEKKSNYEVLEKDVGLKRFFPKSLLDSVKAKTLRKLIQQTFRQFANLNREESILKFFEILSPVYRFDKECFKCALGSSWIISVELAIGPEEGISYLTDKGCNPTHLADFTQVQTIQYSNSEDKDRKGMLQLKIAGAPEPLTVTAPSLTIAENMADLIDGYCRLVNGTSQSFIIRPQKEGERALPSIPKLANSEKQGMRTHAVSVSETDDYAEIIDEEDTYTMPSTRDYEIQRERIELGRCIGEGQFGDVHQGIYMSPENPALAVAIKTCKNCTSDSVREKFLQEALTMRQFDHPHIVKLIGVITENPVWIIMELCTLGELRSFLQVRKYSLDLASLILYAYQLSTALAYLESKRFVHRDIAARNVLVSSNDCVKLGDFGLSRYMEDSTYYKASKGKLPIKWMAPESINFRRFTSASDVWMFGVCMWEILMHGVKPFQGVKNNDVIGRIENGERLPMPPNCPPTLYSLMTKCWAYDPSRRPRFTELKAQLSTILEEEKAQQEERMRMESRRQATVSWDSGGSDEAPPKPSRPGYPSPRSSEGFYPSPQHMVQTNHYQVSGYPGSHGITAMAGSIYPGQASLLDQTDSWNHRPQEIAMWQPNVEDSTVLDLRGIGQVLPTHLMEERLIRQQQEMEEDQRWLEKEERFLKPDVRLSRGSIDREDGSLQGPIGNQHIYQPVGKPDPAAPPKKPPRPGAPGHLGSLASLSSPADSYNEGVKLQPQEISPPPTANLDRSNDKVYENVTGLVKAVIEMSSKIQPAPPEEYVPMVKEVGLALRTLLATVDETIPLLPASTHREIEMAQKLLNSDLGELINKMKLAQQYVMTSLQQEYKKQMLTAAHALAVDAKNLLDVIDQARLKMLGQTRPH

[15] = biological target: MAP kinase-interacting serine/threonine-protein kinase 1 (Homo sapiens) (UniProt Q9BUB5); assay: Inhibition of wild-type human full length MKNK1 (M1 to L424 residues) expressed in mammalian expression system assessed as residual activity at 1 uM by Kinomescan method relative to control
MAP kinase-interacting serine/threonine-protein kinase 1 (Homo sapiens), sequence (Q9BUB5 whole entry, looked up, the tested form may be a part): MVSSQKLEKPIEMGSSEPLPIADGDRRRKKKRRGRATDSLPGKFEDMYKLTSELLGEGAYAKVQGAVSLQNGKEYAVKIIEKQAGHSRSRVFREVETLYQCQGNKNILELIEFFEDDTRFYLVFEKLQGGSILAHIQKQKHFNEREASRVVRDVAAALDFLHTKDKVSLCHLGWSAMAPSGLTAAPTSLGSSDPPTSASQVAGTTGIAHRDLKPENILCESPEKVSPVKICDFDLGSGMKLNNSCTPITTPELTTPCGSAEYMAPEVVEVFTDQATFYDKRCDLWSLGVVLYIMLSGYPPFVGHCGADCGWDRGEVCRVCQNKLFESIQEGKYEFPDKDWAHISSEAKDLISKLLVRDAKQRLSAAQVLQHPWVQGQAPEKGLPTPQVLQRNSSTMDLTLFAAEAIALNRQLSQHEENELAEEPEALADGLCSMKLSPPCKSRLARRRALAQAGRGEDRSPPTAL

[16] = biological target: Serine/threonine-protein kinase Nek1 (Homo sapiens) (UniProt Q96PY6); assay: Inhibition of wild-type human partial length NEK1 (M1 to K278 residues) expressed in bacterial expression system assessed as residual activity at 1 uM by Kinomescan method relative to control
Serine/threonine-protein kinase Nek1 (Homo sapiens), sequence (Q96PY6 whole entry, the tested form may be a part): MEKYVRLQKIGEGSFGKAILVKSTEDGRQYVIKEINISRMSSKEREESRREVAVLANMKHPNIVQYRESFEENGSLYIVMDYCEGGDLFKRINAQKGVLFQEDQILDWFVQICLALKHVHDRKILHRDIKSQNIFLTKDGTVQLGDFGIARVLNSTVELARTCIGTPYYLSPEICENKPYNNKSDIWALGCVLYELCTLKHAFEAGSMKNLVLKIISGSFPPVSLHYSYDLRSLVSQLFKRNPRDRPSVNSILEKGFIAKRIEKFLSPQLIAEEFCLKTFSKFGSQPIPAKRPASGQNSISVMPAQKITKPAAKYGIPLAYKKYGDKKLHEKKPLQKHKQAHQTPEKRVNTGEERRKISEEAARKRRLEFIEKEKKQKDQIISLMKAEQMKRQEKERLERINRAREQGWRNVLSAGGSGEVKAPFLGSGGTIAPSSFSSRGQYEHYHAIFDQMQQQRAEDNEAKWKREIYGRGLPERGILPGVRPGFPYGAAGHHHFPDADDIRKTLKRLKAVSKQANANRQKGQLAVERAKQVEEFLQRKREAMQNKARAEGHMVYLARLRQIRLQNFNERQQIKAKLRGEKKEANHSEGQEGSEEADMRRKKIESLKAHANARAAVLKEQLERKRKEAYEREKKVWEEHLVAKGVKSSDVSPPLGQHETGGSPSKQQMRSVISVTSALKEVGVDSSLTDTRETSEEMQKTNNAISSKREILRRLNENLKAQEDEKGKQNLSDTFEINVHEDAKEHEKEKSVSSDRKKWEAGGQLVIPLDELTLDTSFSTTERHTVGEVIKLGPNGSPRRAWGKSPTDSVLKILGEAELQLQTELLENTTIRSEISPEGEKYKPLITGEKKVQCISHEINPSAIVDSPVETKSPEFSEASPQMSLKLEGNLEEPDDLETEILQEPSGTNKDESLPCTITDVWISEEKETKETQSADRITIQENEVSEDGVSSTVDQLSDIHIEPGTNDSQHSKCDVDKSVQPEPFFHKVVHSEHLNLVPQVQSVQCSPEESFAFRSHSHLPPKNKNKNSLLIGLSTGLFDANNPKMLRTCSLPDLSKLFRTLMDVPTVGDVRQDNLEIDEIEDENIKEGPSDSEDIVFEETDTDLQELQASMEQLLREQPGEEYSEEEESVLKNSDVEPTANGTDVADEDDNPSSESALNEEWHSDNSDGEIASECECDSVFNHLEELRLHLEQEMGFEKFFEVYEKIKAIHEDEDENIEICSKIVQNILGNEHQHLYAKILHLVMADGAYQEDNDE

[17] = biological target: Cyclin-dependent kinase 16 (Homo sapiens) (UniProt Q00536); assay: Inhibition of wild-type human partial length PCTK1 (G160 to A474 residues) expressed in mammalian expression system assessed as residual activity at 1 uM by Kinomescan method relative to control
[18] = biological target: Platelet-derived growth factor receptor alpha (Homo sapiens) (UniProt P16234); assay: Inhibition of wild-type human partial length PDGFRA (V575 to D1002 residues) expressed in mammalian expression system assessed as residual activity at 1 uM by Kinomescan method relative to control
[19] = biological target: cAMP-dependent protein kinase catalytic subunit alpha (Homo sapiens) (UniProt P17612); assay: Inhibition of wild-type human partial length PKAC-alpha (G10 to F351 residues) expressed in bacterial expression system assessed as residual activity at 1 uM by Kinomescan method relative to control
[20] = biological target: Non-receptor tyrosine-protein kinase TYK2 (Homo sapiens) (UniProt P29597); assay: Inhibition of wild-type human partial length TYK2 JH1 catalytic domain (V877 to C1187 residues) expressed in mammalian expression system assessed as residual activity at 1 uM by Kinomescan method relative to control
[21] = biological target: Serine/threonine-protein kinase ULK1 (Homo sapiens) (UniProt O75385); assay: Inhibition of wild-type human partial length ULK1 (M1 to T309 residues) expressed in mammalian expression system assessed as residual activity at 1 uM by Kinomescan method relative to control
Serine/threonine-protein kinase ULK1 (Homo sapiens), sequence (O75385 whole entry, the tested form may be a part): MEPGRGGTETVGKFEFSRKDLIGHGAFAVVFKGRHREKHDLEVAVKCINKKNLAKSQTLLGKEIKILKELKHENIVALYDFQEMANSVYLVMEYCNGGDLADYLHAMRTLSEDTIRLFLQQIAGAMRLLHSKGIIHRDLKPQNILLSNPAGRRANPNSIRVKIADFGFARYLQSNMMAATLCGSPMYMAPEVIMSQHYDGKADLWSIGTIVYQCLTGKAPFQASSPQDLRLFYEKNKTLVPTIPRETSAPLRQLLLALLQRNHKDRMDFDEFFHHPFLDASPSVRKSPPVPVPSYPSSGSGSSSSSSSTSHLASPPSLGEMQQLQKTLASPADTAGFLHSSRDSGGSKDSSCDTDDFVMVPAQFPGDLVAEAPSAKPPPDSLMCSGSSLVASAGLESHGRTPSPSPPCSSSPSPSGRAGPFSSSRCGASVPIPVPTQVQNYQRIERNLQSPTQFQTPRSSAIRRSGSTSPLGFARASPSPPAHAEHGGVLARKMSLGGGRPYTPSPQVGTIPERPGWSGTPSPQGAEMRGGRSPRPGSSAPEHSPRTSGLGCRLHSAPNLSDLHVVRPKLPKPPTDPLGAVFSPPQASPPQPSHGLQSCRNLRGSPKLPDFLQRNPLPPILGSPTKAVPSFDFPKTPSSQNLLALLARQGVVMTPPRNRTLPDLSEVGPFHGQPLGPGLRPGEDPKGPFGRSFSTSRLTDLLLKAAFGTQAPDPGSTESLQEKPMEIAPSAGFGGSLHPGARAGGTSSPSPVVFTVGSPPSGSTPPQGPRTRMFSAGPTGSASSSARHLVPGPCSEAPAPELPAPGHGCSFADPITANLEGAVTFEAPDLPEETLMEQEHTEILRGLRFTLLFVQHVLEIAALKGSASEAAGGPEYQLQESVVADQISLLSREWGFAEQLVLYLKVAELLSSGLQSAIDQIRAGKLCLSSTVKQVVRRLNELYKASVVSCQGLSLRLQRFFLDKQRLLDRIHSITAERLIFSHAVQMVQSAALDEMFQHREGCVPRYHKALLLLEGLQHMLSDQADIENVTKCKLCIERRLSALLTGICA

[22] = biological target: Tyrosine-protein kinase ZAP-70 (Homo sapiens) (UniProt P43403); assay: Inhibition of wild-type human partial length ZAP70 (D20 to G299 residues) expressed in mammalian expression system assessed as residual activity at 1 uM by Kinomescan method relative to control

With `CCNc1cc(-c2ccc(NC(=O)Nc3cccc(Cl)c3)cc2C(F)(F)F)ccn1` as the compound, how does the inhibition [1] read?
The inhibition was 82.7%.

And the IC50 [2]?
Its IC50 is 1240 nM.

What about the Activity [3] of the same compound?
The Activity was 0.45%.

What about the Activity [4] of the same compound?
The Activity was “Active”.

And the Activity [5]?
Its Activity is “Active”.

And the Activity [6]?
Its Activity is “inactive”.

What about the Activity [7] of the same compound?
The Activity was 89%.

And the Activity [8]?
The Activity was 85%.

What about the Activity [9] of the same compound?
Its Activity is 11%.

What about the Activity [10] of the same compound?
Its Activity is 99%.

And the Activity [11]?
The Activity was 67%.

And the Activity [12]?
The Activity was 80%.

And the Activity [13]?
The Activity was 73%.

And the Activity [14]?
The Activity was 76%.

What about the Activity [15] of the same compound?
Its Activity is 81%.

What about the Activity [16] of the same compound?
The Activity was 60%.

And the Activity [17]?
The Activity was 66%.

And the Activity [18]?
The Activity was 79%.

And the Activity [19]?
The Activity was 79%.

What about the Activity [20] of the same compound?
The Activity was 65%.

And the Activity [21]?
The Activity was 62%.

And the Activity [22]?
Its Activity is 71%.

Source: ChEMBL document CHEMBL4251622, “Design, synthesis, and biological evaluation of polo-like kinase 1/eukaryotic elongation factor 2 kinase (PLK1/EEF2K) dual inhibitors for regulating breast cancer cells apoptosis and autophagy” (Eur J Med Chem, 2018)
